These results are taken from patent US8921373B2, “Compounds having TRPV1 antagonistic activity and uses thereof” (Shionogi & Co., Ltd., priority 2010, dated 2014).

Test [1] addresses T1, human recombinant TRPV1 (Homo sapiens (Human), UniProt Q8NER1). Nature of the test: TRPV1 pH-Based Assay (Protocol 2, Ca2+ response in TRPV1/CHO cells, Fura-2). Type of test: cell-based. Particulars: TRPV1/CHO cells, pH 5.0-5.1. The protocol: (§1) For Protocol 2, a Chinese Hamster Ovary cell line (CHO) that has been engineered to constitutively express human recombinant TRPV1 was used (TRPV1/CHO cells). The TRPV1/CHO cell line was generated as described below.
TRPV1/CHO cells were seeded in the 96-well clear-bottom black-wall plate (Nunc) at densities of 1-2×10^4 cells/well and grown in 100 μL of culture medium (alpha-MEM supplemented with 10% FBS, 20 mM HEPES, 1 mg/mL geneticin and 1% antibiotic-antimycotic mixed stock solution) for 1-2 days before the experiment.
(2) The 96-well plate was incubated at 37° C. for 45 min.
(3) The loading buffer was removed from each well. […] The wells were then refilled with 80 μL of measuring buffer.
(4) After an incubation at 4° C. for 15 min, the 96-well plate was transferred to FDSS-3000 (Hamamatsu Photonics, Japan).
(5) The Fura-2 fluorescent intensity was monitored at a wavelength of 340 nm and at 380 nm, respectively, at a rate of 0.5 Hz for a total of 240 seconds. After 16 time points (32 sec) of baseline detection, 20 μL of agonist solution was added to each well. The final volume was 100 μL/well.
(6) Fluorescence intensity ratio refers to the fluorescence intensity at 340 nm over the fluorescence intensity at 380 nm at a particular time point. The baseline was set as the average of the fluorescent intensity ratios for the first 16 time points before the addition of agonist solution. The maximum response was the highest fluorescent intensity ratio during the 60 time points following addition of agonist solution.
(7) Maximal signal ratios from each well were calculated as output data using the FDSS-3000 analysis program. Data were analyzed using Excel (Microsoft) and XLfit (idbs) software.
Two different agonist solutions with different H2SO4 concentrations were used for the pH assay (FIG. 3A). For one half of a 96-well plate one agonist solution was used, for the other half the other agonist solution. The agonist solutions were obtained by diluting sulfuric acid (H2SO4, 1M) with measuring buffer. The concentrations for the two agonist solutions were determined as described above in Section 2 of Protocol 2.
The sulfuric acid concentrations between the two agonist solutions differed by 0.5 mM. […] After 1:4 dilution of the agonist solutions, the final sulfuric acid concentration was 3.2 mM and 3.3 mM, respectively. The resulting pH value for the pH assay was 5.0 to 5.1.
Test compounds were dissolved in DMSO to yield 1 mM stock solutions. […] The thereby-obtained solutions were further diluted in measuring buffer (1:100) as 10× stock serial dilutions with a DMSO concentration of 1%. 10 μL of a 10× stock was added into each well at step 3.3.(4) of Protocol 2.
Steps (1) and (2) of this Assay were the same as steps 2.2.(1) and 2.2.(2) of Protocol 2, respectively.
(3) The cells were washed twice with 150 μL of measuring buffer (mentioned in 2.2.(3) of Protocol 2, no probenecid). The wells were subsequently refilled with 70 μL of measuring buffer.
(4) Either 10 μl of measuring buffer or 10 μL of 10× stock serial dilution of test compound (described in 3.2. above) were applied to each well. Usually, only one test compound was tested per 96-well plate. The number of replicates per 96-well plate for a particular antagonist at a particular concentration was 7×2 since two different sulfuric acid concentrations were used per 96-well plate (N=7×2) (FIG. 3).
Step (5) was the same as 2.2.(4) above.
(6) Fura-2 fluorescent intensity was monitored as described in 2.2.(5) above. After 16 time points of baseline detection, 20 μL of agonist solution (measuring buffer titrated with H2SO4 to yield pH 5.0-5.1 when mixed 1:4 with the measuring buffer containing test compound) was added to each well (final volume 100 μL/well).
Steps (7) and (8) were as described in 2.2.(6) and 2.2.(7) above, respectively.
(1) The pH values of the buffer in the wells of A1→H1 and A7→H7 (longitudinally; FIG. 3) were measured one by one using a portable pH meter.

The target of test [2] is T1, human recombinant TRPV1. Nature of the test: TRPV1 Capsaicin-Based Assay (Protocol 2, TRPV1/CHO cells, Fluo-4, FLIPR). The settings on record: TRPV1/CHO cells, capsaicin 100 nM final. Type of test: cell-based. The procedure:
as §1
One day prior to assay, TRPV1/CHO cells were seeded in 96-well clear-bottom black plates (20,000 cells/well) in growth media. On the day of the experiment, the cells were washed with 0.2 mL 1× Hank's Balanced Salt Solution (Life Technologies) containing 1.6 mM CaCl2 and 20 mM HEPES, pH 7.4 (“wash buffer”). Subsequently, the cells were loaded by incubation in 0.1 mL of wash buffer containing Fluo-4 at 3 μM final concentration. After 1 hour, the cells were washed twice with 0.2 mL wash buffer and resuspended in 0.1 mL wash buffer. The plates were then transferred to a Fluorescence Imaging Plate Reader (Molecular Devices). Fluorescence intensity was monitored for 15 seconds to establish a baseline. Subsequently, test compounds diluted in assay buffer (1× Hank's Balanced Salt Solution containing 1 mM CaCl2 and 20 mM HEPES, pH 7.4) containing 1% DMSO were added to the cell plate and fluorescence was monitored for 2 minutes. […] Human TRPV1 was then activated by the addition of 50 μL capsaicin (100 nM final concentration) and plates incubated for an additional 3 min. Data were collected over the entire time course and analyzed using Excel and the curve-fitting formula GraphPad Prism.

[3] abbreviates: read-out: IC50 value by the pH-Based Assay.
The mark [4] stands for this setting: read-out: IC50 value by the Capsaicin-Based Assay.
Setting [5] is: compounds of the invention, read-out: TRPV1 IC50 Potency (Capsaicin-Based Assay), Compound IC50.

One may read the IC50 as the concentration that gives 50% inhibition.

T1 sequence (Q8NER1 whole entry): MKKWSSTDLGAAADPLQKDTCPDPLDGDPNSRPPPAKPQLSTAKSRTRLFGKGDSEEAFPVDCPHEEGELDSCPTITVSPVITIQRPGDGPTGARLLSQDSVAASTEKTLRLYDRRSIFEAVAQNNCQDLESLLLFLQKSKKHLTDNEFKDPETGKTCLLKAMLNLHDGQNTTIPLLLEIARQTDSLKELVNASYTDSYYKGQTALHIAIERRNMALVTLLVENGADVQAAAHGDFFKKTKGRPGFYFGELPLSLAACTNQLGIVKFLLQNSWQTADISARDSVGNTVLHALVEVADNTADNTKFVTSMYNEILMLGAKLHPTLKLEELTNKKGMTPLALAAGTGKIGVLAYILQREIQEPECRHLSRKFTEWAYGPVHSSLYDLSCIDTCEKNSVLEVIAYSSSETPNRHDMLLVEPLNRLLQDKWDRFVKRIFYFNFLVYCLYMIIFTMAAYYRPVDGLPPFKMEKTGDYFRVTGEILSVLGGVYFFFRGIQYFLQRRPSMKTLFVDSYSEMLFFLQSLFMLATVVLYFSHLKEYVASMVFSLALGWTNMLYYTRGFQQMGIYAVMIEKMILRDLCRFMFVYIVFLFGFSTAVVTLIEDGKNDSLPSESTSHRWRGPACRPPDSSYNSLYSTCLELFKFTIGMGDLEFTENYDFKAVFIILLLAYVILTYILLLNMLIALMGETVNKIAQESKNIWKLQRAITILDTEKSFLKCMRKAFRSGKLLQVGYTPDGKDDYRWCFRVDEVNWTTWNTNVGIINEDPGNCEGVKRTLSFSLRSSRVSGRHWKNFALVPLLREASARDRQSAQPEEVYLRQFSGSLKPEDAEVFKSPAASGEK

As to `Cc1cc(NC(=O)N2CCC(F)(c3ncc(C[C@@H](O)CO)cc3Cl)CC2)ccc1C(F)(F)F` [ACI, (R)-4-(3-Chloro-5-(2,3-dihydroxypropyl)pyridin-2-yl)-4-fluoro-N-(3-methyl-4-(trifluoromethyl)phenyl)piperidine-1-carboxamide], the half-maximal inhibitory concentration (IC50) in test [1] (setting [3]) and in test [2] (setting [4]) was not above 50 nM throughout.
For `C[C@H]1CN(c2ncc(C[C@@H](O)CO)cc2Cl)CCN1C(=O)Nc1nc2ccccc2s1` [AEA], the IC50 in test [1] (setting [3]) and in test [2] (setting [4]) was not above 50 nM throughout.
Consider `C[C@@H]1CN(c2ncc(C[C@@H](O)CO)cc2Cl)CCN1C(=O)Nc1nc2ccc(F)cc2s1` [ACU, (R)-4-(3-chloro-5-((R)-2,3-dihydroxypropyl)pyridin-2-yl)-N-(6-fluorobenzo[d]thiazol-2-yl)-2-methylpiperazine-1-carboxamide], for which, in test [2] (setting [4]), the 50% inhibitory concentration (IC50) was not above 50 nM.
As to `Cc1ccc2nc(NC(=O)N3CCN(c4ncc(C[C@H](O)CO)cc4Cl)C[C@@H]3C)sc2c1` [AEC], the half-inhibitory concentration (IC50) in test [1] (setting [3]) and in test [2] (setting [4]) was not above 50 nM in each case.
As to `Cc1cc(C[C@@H](O)CO)cnc1N1CCN(C(=O)Nc2nc3ccc(F)cc3s2)CC1` [ADA, (R)-4-(5-(2,3-dihydroxypropyl)-3-methylpyridin-2-yl)-N-(6-fluorobenzo[d]-thiazol-2-yl)piperazine-1-carboxamide], the IC50 in test [1] (setting [3]) and in test [2] (setting [4]) was not above 50 nM each time.
Turning to `C[C@H]1CN(c2ncc(C[C@@H](O)CO)cc2F)CCN1C(=O)Nc1nc2cc(F)c(F)cc2s1` [AEY], the IC50 in test [1] (setting [3]) and in test [2] (setting [4]) was not above 50 nM in each case.
In the case of `C[C@@H]1CN(c2ncc(C[C@@H](O)CO)cc2F)CCN1C(=O)Nc1nc2ccc(F)cc2s1` [ADH, (R)-4-(5-[(R)-2,3-dihydroxypropyl)-3-fluoropyridin-2-yl)-N-(6-fluorobenzo[d]thiazol-2-yl]-2-methylpiperazine-1-carboxamide], the IC50 in test [1] (setting [3]) and in test [2] (setting [4]) was not above 50 nM each time.
With `Cc1cc(NC(=O)N2CCC(F)(c3ncc(C[C@H](O)CO)cc3C)CC2)ccc1C(F)(F)F` [ACN, (S)-4-(5-(2,3-dihydroxypropyl)-3-methylpyridin-2-yl)-4-fluoro-N-(3-methyl-4-(trifluoromethyl)phenyl)piperidine-1-carboxamide], the concentration for half-maximal inhibition (IC50) in test [1] (setting [3]) and in test [2] (setting [4]) was not above 50 nM in each case.
On to `Cc1cc(NC(=O)N2CCC(F)(c3ncc(C[C@H](O)CO)cc3F)CC2)ccc1OC(F)(F)F` [drawing 496], for which the IC50 in test [2] (setting [5]) turned out to be 46 nM.
Turning to `C[C@H]1CN(C(=O)Nc2nc3cc(F)c(F)cc3s2)CCN1c1ncc(C[C@@H](O)CO)cc1F` [AFS], the IC50 in test [1] (setting [3]) and in test [2] (setting [4]) was not above 50 nM in each case.
Take `CC1(C)CN(c2ncc(C[C@H](O)CO)cc2F)CCN1C(=O)Nc1nc2ccc(F)cc2s1` [AFT]: the half-maximal inhibitory concentration (IC50) in test [1] (setting [3]) and in test [2] (setting [4]) was not above 50 nM in each case.
For the compound `C[C@H]1CN(c2ncc(C[C@@H](O)CO)cc2Cl)CCN1C(=O)Nc1nc2ccc(Cl)cc2s1` [AEE], the 50% inhibitory concentration (IC50) in test [1] (setting [3]) and in test [2] (setting [4]) was not above 50 nM each time.
For the compound `C[C@H]1CN(c2ncc(C[C@H](O)CO)cc2C(F)(F)F)CCN1C(=O)Nc1nc2ccccc2s1` [AGY], the half-maximal inhibitory concentration (IC50) in test [1] (setting [3]) and in test [2] (setting [4]) was not above 50 nM in each case.
For `C[C@H]1CN(C(=O)Nc2nc3ccc(Cl)cc3s2)CCN1c1ncc(C[C@H](O)CO)cc1F` [AGK], the IC50 in test [1] (setting [3]) and in test [2] (setting [4]) was not above 50 nM in each case.
For `C[C@H]1CN(c2ncc(C[C@H](O)CO)cc2F)CCN1C(=O)Nc1nc2ccc(Cl)cc2s1` [AEN], the IC50 in test [1] (setting [3]) and in test [2] (setting [4]) was not above 50 nM each time.
`Cc1cc(NC(=O)N2CCC(F)(c3ncccc3F)CC2)ccc1OC(F)(F)F` [reference compound]: in test [2] (comparative compounds, read-out: TRPV1 IC50 Potency (Capsaicin-Based Assay), Comparative compound IC50), the half-maximal inhibitory concentration (IC50) was 100 nM.
As to `Cc1cc(NC(=O)N2CCC(F)(c3ncc(C[C@@H](O)CO)cc3Cl)CC2)ccc1OC(F)(F)F` [ACJ, (R)-4-(3-Chloro-5-(2,3-dihydroxypropyl)pyridin-2-yl)-4-fluoro-N-(3-methyl-4-(trifluoromethoxy)phenyl)piperidine-1-carboxamide], the IC50 in test [1] (setting [3]) and in test [2] (setting [4]) was not above 50 nM each time.
For `Cc1ccc2nc(NC(=O)N3CCN(c4ncc(C[C@@H](O)CO)cc4Cl)C[C@@H]3C)sc2c1` [ADZ], the IC50 in test [1] (setting [3]) and in test [2] (setting [4]) was not above 50 nM in each case.
For the compound `CC1(C)CN(c2ncc(C[C@@H](O)CO)cc2F)CCN1C(=O)Nc1nc2ccc(F)cc2s1` [AFZ], the IC50 in test [1] (setting [3]) and in test [2] (setting [4]) was not above 50 nM in each case.
In the case of `Cc1cc(NC(=O)N2CCC(F)(c3ncc(C[C@H](O)CO)cc3C)CC2)ccc1OC(F)(F)F` [ACM, (S)-4-(5-(2,3-dihydroxypropyl)-3-methylpyridin-2-yl)-4-fluoro-N-(3-methyl-4-(trifluoromethoxy)phenyl)piperidine-1-carboxamide], the half-maximal inhibitory concentration (IC50) in test [1] (setting [3]) and in test [2] (setting [4]) was not above 50 nM each time.
For the compound `C[C@@H]1CN(c2ncc(C[C@H](O)CO)cc2F)CCN1C(=O)Nc1nc2ccc(F)cc2s1` [AGZ], the IC50 in test [1] (setting [3]) and in test [2] (setting [4]) was not above 50 nM in each case.
For `Cc1cc(NC(=O)N2CC=C(c3ncc(C[C@@H](O)CO)cc3Cl)CC2)ccc1C(F)(F)F` [drawing 501], the IC50 in test [2] (setting [5]) was 40 nM.
As for `C[C@H]1CN(c2ncc(C[C@H](O)CO)cc2Cl)CCN1C(=O)Nc1nc2ccc(F)cc2s1` [AEB], the IC50 in test [1] (setting [3]) and in test [2] (setting [4]) was not above 50 nM throughout.
Turning to `O=C(Nc1nc2ccc(F)cc2s1)N1CCC(F)(c2ncc(C[C@H](O)CO)cc2Cl)CC1`, the 50% inhibitory concentration (IC50) in test [2] (setting [5]) is 116 nM.
Regarding `C[C@@H]1CN(c2ncc(C[C@@H](O)CO)cc2F)CCN1C(=O)Nc1nc2ccc(Cl)cc2s1` [drawing 500], in test [2] (setting [5]), the IC50 stood at 8 nM.
`O=C(Nc1nc2ccc(F)cc2s1)N1CC=C(c2ncc(CC(O)CO)cc2Cl)CC1` (centres unmarked): the IC50 in test [1] (compounds of the invention, read-out: TRPV1 IC50 Potency (pH-Based Assay), Compound IC50) was 5 nM.
Regarding `C[C@@H]1CN(c2ncccc2Cl)CCN1C(=O)Nc1nc2ccc(F)cc2s1` [reference compound], in test [1] (comparative compounds without the substituted alkyl group, read-out: TRPV1 IC50 Potency (pH-Based Assay), Comparative compound IC50), the IC50 was 24 nM.
On to `Cc1ccc2nc(NC(=O)N3CCN(c4ncc(C[C@H](O)CO)cc4F)[C@@H](C)C3)sc2c1` [AFP, (S)-4-(5-((S)-2,3-dihydroxypropyl)-3-fluoropyridin-2-yl)-3-methyl-N-(6-methylbenzo[d]thiazol-2-yl)piperazine-1-carboxamide], for which, in test [1] (setting [3]), the IC50 is not above 50 nM.
